{
  "source": "paper doi:10.1101/2023.10.20.563248v1",
  "about": "(biorxiv, 2023)",
  "conditions_in_all_cases": "1 µM; inhibitor",
  "key": {"ABL1": {"biological_target": "ABL1 (Homo sapiens, UniProt P00519)"}, "DAPK2": {"biological_target": "DAPK2 (Homo sapiens, UniProt Q9UIK4)"}, "NLK": {"biological_target": "NLK (Homo sapiens, UniProt Q9UBE8)"}, "PKCb": {"biological_target": "PKCb (Homo sapiens, UniProt P05771)"}, "CK2a2": {"biological_target": "CK2a2 (Homo sapiens, UniProt P19784)"}, "VRK2": {"biological_target": "VRK2 (Homo sapiens, UniProt Q86Y07)"}, "TRKC": {"biological_target": "TRKC (Homo sapiens, UniProt Q16288)"}, "RIPK4": {"biological_target": "RIPK4 (Homo sapiens, UniProt P57078)"}, "MUSK": {"biological_target": "MUSK (Homo sapiens, UniProt O15146)", "sequence (O15146 whole entry)": "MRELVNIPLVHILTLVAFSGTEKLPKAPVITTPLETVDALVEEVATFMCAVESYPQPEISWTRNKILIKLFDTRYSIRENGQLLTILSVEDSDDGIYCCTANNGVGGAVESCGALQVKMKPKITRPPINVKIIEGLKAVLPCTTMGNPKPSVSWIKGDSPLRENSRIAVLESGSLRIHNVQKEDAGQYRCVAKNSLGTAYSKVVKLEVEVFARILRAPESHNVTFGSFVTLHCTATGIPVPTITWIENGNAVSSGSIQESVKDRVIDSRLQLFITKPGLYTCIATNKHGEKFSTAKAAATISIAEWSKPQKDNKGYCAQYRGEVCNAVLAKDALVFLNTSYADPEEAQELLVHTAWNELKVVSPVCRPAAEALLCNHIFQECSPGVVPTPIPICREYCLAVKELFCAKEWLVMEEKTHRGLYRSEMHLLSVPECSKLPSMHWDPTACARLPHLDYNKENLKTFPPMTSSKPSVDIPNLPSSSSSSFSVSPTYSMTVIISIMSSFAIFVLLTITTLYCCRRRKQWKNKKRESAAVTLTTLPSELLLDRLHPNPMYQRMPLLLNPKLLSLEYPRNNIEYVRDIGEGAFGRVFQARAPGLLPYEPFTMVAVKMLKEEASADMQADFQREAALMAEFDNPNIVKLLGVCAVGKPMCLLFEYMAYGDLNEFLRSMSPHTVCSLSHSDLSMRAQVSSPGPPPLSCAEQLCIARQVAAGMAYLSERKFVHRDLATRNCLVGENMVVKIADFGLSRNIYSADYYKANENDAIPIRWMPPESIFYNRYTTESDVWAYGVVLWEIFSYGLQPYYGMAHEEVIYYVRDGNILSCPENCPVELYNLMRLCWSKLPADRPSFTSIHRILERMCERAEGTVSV"}, "JNK2": {"biological_target": "JNK2 (Homo sapiens, UniProt P45984)", "sequence (P45984 whole entry)": "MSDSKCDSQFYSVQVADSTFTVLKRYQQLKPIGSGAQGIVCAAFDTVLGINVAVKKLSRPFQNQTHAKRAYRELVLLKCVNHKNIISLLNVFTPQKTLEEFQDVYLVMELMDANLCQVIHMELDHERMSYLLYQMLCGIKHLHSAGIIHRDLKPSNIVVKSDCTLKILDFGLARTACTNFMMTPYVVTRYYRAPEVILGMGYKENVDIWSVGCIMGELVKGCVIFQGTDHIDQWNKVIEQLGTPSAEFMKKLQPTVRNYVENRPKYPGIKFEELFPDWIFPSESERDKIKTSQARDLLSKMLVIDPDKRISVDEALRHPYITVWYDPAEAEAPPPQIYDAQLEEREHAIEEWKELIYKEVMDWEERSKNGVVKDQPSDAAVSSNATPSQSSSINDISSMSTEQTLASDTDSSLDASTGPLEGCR"}, "AurA": {"biological_target": "AurA (Homo sapiens, UniProt O14965)"}, "MEK2": {"biological_target": "MEK2 (Homo sapiens, UniProt P36507)"}, "CDC42BPA": {"biological_target": "CDC42BPA (Homo sapiens, UniProt Q5VT25)"}, "EPHA5": {"biological_target": "EPHA5 (Homo sapiens, UniProt P54756)"}, "SLK": {"biological_target": "SLK (Homo sapiens, UniProt Q9H2G2)", "sequence (Q9H2G2 whole entry)": "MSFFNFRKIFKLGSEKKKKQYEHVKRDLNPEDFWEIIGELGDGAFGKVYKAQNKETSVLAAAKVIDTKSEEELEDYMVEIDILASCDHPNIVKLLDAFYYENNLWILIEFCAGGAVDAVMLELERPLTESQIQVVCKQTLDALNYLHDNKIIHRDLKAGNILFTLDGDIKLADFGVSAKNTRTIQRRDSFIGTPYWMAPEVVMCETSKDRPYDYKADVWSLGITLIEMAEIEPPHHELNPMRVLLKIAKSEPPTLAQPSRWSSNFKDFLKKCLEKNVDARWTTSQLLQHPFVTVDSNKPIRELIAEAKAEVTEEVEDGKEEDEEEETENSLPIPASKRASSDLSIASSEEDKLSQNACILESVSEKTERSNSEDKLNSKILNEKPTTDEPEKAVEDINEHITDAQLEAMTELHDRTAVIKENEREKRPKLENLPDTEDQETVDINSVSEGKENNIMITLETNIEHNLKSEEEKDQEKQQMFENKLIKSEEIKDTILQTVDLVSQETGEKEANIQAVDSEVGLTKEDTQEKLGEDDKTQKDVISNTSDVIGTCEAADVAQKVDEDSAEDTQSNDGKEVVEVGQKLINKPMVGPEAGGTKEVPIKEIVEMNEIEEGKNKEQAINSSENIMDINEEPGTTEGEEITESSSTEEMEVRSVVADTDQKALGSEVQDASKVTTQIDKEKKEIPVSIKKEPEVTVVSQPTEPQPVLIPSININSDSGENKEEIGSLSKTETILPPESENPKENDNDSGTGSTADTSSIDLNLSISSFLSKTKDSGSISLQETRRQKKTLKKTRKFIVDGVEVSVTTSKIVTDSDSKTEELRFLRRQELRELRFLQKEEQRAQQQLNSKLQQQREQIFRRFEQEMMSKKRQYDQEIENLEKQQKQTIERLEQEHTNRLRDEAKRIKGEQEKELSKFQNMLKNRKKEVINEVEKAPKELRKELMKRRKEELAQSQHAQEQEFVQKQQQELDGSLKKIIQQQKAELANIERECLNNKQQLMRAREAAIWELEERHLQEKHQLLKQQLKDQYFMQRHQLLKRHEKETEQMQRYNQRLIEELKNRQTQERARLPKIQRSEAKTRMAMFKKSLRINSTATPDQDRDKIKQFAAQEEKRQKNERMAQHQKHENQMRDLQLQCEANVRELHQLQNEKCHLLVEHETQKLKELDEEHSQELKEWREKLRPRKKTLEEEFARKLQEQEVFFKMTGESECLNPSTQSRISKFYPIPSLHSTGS"}, "PKCi": {"biological_target": "PKCi (Homo sapiens, UniProt P41743)"}, "EPHA4": {"biological_target": "EPHA4 (Homo sapiens, UniProt P54764)"}, "TSK2": {"biological_target": "TSK2 (Homo sapiens, UniProt Q96PF2)", "sequence (Q96PF2 whole entry)": "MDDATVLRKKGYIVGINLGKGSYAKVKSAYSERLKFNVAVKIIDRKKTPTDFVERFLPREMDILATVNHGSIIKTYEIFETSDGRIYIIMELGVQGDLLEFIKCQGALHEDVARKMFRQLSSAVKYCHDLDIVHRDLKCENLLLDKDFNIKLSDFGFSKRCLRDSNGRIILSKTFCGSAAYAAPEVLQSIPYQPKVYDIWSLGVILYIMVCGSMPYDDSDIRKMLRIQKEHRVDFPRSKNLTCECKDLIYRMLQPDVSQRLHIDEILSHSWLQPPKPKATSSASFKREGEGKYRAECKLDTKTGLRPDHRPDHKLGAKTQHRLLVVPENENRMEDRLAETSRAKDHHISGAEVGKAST"}, "RON": {"biological_target": "RON (Homo sapiens, UniProt Q04912)"}, "NIK": {"biological_target": "NIK (Homo sapiens, UniProt Q99558)"}, "MASTL": {"biological_target": "MASTL (Homo sapiens, UniProt Q96GX5)"}, "GSK3B": {"biological_target": "GSK3B (Homo sapiens, UniProt P49841)"}, "DAPK3": {"biological_target": "DAPK3 (Homo sapiens, UniProt O43293)"}, "TTBK2": {"biological_target": "TTBK2 (Homo sapiens, UniProt Q6IQ55)", "sequence (Q6IQ55 whole entry)": "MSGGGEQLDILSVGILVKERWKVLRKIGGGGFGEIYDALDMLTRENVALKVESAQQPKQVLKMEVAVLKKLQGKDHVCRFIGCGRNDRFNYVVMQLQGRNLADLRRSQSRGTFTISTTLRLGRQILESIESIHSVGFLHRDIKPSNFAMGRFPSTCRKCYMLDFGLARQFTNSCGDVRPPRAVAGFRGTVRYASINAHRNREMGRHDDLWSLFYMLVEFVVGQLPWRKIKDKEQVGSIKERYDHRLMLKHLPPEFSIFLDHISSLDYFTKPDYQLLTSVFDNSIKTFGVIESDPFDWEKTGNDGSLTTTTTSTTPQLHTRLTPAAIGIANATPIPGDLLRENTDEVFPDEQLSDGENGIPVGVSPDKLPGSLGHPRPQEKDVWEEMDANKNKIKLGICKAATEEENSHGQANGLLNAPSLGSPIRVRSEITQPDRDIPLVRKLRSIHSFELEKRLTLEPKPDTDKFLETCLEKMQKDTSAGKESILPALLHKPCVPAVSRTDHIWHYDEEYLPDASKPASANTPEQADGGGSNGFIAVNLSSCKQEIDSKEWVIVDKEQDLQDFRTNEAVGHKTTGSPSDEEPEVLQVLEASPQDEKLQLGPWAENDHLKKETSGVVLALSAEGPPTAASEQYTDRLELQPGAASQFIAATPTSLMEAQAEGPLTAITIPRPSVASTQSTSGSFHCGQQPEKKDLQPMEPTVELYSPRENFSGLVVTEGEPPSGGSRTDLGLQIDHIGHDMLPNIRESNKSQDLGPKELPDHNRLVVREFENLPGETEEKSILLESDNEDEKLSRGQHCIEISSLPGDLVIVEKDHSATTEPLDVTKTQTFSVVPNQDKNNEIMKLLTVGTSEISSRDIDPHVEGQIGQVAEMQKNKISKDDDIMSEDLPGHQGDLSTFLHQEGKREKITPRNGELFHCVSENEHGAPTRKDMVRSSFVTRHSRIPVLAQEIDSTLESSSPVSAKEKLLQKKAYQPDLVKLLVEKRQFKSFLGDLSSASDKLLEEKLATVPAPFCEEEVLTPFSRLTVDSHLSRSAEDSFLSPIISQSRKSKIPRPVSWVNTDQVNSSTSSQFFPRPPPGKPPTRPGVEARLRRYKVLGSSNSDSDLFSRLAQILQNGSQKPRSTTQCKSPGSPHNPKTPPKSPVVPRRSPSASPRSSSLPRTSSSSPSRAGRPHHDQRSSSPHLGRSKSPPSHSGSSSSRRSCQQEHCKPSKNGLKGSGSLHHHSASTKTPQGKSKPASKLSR"}, "GSK3A": {"biological_target": "GSK3A (Homo sapiens, UniProt P49840)"}, "ITK": {"biological_target": "ITK (Homo sapiens, UniProt Q08881)"}, "EEF2K": {"biological_target": "EEF2K (Homo sapiens, UniProt O00418)"}, "ERK1": {"biological_target": "ERK1 (Homo sapiens, UniProt P27361)", "sequence (P27361 whole entry)": "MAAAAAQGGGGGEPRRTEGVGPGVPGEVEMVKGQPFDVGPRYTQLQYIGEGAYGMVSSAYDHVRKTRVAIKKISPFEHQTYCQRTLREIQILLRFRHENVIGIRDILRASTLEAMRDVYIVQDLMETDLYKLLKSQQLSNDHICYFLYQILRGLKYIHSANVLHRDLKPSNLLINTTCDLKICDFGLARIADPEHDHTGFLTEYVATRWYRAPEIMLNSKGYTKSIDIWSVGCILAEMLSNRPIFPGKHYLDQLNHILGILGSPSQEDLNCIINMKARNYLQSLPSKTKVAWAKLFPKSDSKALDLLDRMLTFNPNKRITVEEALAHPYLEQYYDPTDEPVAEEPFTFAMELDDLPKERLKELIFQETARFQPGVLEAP"}, "MLK4": {"biological_target": "MLK4 (Homo sapiens, UniProt Q5TCX8)"}, "BRK": {"biological_target": "BRK (Homo sapiens, UniProt Q13882)", "sequence (Q13882 whole entry)": "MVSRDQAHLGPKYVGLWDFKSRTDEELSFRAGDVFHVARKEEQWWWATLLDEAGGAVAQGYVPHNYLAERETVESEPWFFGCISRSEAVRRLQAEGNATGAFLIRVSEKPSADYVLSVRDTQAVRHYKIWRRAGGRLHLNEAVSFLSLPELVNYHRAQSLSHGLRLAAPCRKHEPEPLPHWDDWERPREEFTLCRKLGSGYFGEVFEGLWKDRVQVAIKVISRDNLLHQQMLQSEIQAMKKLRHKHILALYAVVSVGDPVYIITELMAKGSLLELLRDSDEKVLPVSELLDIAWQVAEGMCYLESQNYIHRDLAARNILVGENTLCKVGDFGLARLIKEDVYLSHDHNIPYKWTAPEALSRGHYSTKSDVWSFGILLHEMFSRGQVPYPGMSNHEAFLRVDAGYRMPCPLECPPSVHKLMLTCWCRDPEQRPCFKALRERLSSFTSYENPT"}, "CK1g2": {"biological_target": "CK1g2 (Homo sapiens, UniProt P78368)"}},
  "data": [
    {"smiles": "O=C1NCCCCCNc2nc(c3ccccc3n2)Nc2cc1[nH]n2", "note": "[21c, (Z)-3^1H-2,5,11-triaza-1(4,2)-quinazolina-3(3,5)-pyrazolacycloundecaphan-4-one]", "values": [
      {"measurement": "21c Remaining activity, percent of control [%]", "setting": "ABL1", "value": 106.1, "unit": "%"},
      {"measurement": "21c Remaining activity, percent of control [%]", "setting": "DAPK2", "value": 100.3, "unit": "%"},
      {"measurement": "21c Remaining activity, percent of control [%]", "setting": "NLK", "value": 111.9, "unit": "%"},
      {"measurement": "21c Remaining activity, percent of control [%]", "setting": "PKCb", "value": 82.5, "unit": "%"},
      {"measurement": "21c Remaining activity, percent of control [%]", "setting": "CK2a2", "value": 85.6, "unit": "%"},
      {"measurement": "21c Remaining activity, percent of control [%]", "setting": "VRK2", "value": 96.9, "unit": "%"},
      {"measurement": "21c Remaining activity, percent of control [%]", "setting": "TRKC", "value": 102.0, "unit": "%"},
      {"measurement": "21c Remaining activity, percent of control [%]", "setting": "RIPK4", "value": 101.1, "unit": "%"},
      {"measurement": "21c Remaining activity, percent of control [%]", "setting": "MUSK", "value": 83.0, "unit": "%"},
      {"measurement": "21c Remaining activity, percent of control [%]", "setting": "JNK2", "value": 84.0, "unit": "%"},
      {"measurement": "21c Remaining activity, percent of control [%]", "setting": "AurA", "value": 83.6, "unit": "%"},
      {"measurement": "21c Remaining activity, percent of control [%]", "setting": "MEK2", "value": 90.2, "unit": "%"},
      {"measurement": "21c Remaining activity, percent of control [%]", "setting": "CDC42BPA", "value": 107.0, "unit": "%"},
      {"measurement": "21c Remaining activity, percent of control [%]", "setting": "EPHA5", "value": 98.4, "unit": "%"},
      {"measurement": "21c Remaining activity, percent of control [%]", "setting": "SLK", "value": 61.9, "unit": "%"},
      {"measurement": "21c Remaining activity, percent of control [%]", "setting": "PKCi", "value": 83.5, "unit": "%"},
      {"measurement": "21c Remaining activity, percent of control [%]", "setting": "EPHA4", "value": 67.5, "unit": "%"},
      {"measurement": "21c Remaining activity, percent of control [%]", "setting": "TSK2", "value": 93.8, "unit": "%"},
      {"measurement": "21c Remaining activity, percent of control [%]", "setting": "RON", "value": 94.5, "unit": "%"},
      {"measurement": "21c Remaining activity, percent of control [%]", "setting": "NIK", "value": 68.5, "unit": "%"},
      {"measurement": "21c Remaining activity, percent of control [%]", "setting": "MASTL", "value": 118.0, "unit": "%"},
      {"measurement": "21c Remaining activity, percent of control [%]", "setting": "GSK3B", "value": 81.4, "unit": "%"},
      {"measurement": "21c Remaining activity, percent of control [%]", "setting": "DAPK3", "value": 107.0, "unit": "%"},
      {"measurement": "21c Remaining activity, percent of control [%]", "setting": "TTBK2", "value": 109.9, "unit": "%"},
      {"measurement": "21c Remaining activity, percent of control [%]", "setting": "GSK3A", "value": 67.3, "unit": "%"},
      {"measurement": "21c Remaining activity, percent of control [%]", "setting": "ITK", "value": 99.7, "unit": "%"},
      {"measurement": "21c Remaining activity, percent of control [%]", "setting": "EEF2K", "value": 114.2, "unit": "%"},
      {"measurement": "21c Remaining activity, percent of control [%]", "setting": "ERK1", "value": 85.8, "unit": "%"},
      {"measurement": "21c Remaining activity, percent of control [%]", "setting": "MLK4", "value": 99.1, "unit": "%"},
      {"measurement": "21c Remaining activity, percent of control [%]", "setting": "BRK", "value": 99.3, "unit": "%"},
      {"measurement": "21c Remaining activity, percent of control [%]", "setting": "CK1g2", "value": 109.6, "unit": "%"}
    ]}
  ]
}
